Data: patent US11439655B2, “Compounds for use in wound healing and angiogenesis” (UNIVERSITY OF SOUTH CAROLINA, priority 2017, dated 2022)

Assays:
HUVECs = experiment: Capillary tube formation on matrigel; assay type: cell-based, human; conditions: 10 and 20 μg/ml
Protocol: [formula] where Wn is the width of gap after every 4 hours and W0 is the initial width zero right after forming a scratch. Capillary Tube Formation Matrigel kept in a −20° C. freezer and thawed on ice overnight in a 4° C. refrigerator. A total of 50 μl of thawed matrigel was added to each well of pre-chilled 96-well plate and then incubated for 30 min at 37° C. to form a gel. Next, 100 μl of a HUVEC cell suspension (passage 2-6) in conditioned media (20000 cell/well) including the compounds of this invention was added to gel and incubated at 37° C. for 8 hours. The number of junctions in tubes was examined using a phase contrast inverted microscope (Invitrogen EVOS FL Auto Cell Imaging) and compared to the conditions with no compound (negative control).

NHDFs = experiment: In vitro scratch assay (simulated wound closure, cell migration); assay type: cell-based, human; conditions: for time of wound closure of fibroblast compared to the control (growth media): after multiple different time intervals
Protocol: (§1) In Vitro Scratch Assay Cell migration was assessed through making a scratch on confluent monolayers of NHDFs and NHEKs. A total of 15×10^4 cells per well were seeded on a 24 well plate and left overnight to reach confluency. The cell layer was then scraped using a 200 μl pipet tip and any cell debris was washed away with PBS. The samples were supplemented with different concentration of the compounds of interest in growth media and incubated at 37° C. and 5% CO2 for 20 hours. Images were taken every 4 hours using a phase contrast Nikon Eclipse Ti-E inverted microscope. Quantification of percent wound healing was performed by measuring the gap distance using the following formula, [formula] where Wn is the width of gap after every 4 hours and W0 is the initial width zero right after forming a scratch. Capillary Tube Formation

NHEKs = experiment: as above; assay type: cell-based, human; conditions: for NHEK gap closure / level of wound closure vs control: compounds 10 and 20 μg/ml, extract 50 μg/ml, over 20 h, control growth media; for time of wound closure of keratinocyte compared to the control (growth media): after multiple different time intervals
Protocol: as §1

[1] = tested on: Normal Human Dermal Fibroblasts (NHDFs); experiment: Cytotoxicity assay (MTS), cell viability/proliferation; assay type: cell-based; conditions: 24 h exposure, 10, 20, 50 and 100 μg/ml, vs control and DMSO vehicle control
Protocol: (§2) Human Umbilical Vein Endothelial cells (HUVEC), Adult Normal Human Epidermal Keratinocytes (NHEK), Normal Human Dermal fibroblast (NHDF) and related media for cell culture including endothelial basal and growth medium-2 (EBM-2, EGM-2), keratinocyte basal and growth medium-2 (KBM-2, KGM™-2), fibroblast basal and growth medium (FBM, FGM™) were purchased from Lonza. The cell types were selected due to their important physiologic role in early and late stages of wound healing. Cells were incubated at 37° C. and 5% CO2 throughout the examples. Phosphate-Buffered Saline (PBS), [3-(4,5-dimethylthiazol-2-yl)-5-(3-carboxymethoxyphenyl)-2-(4-sulfophenyl)-2H-tetrazolium (MTS) (Promega) colorimetric assay and growth factor reduced matrigel BD (Corning) were from Sigma-Aldrich.
(§3) In order to determine cell viability, HUVECs, NHDFs, and NHEKs were cultured in their growth media to reach 80% confluency. Cells were seeded at the density of 5×10^3 cell per 96 well plate in a total volume of 100 μl in each well. After seeding, the cells were incubated for 24 hours at 37° C. and 5% CO2 to allow for cell attachment. Media was changed and replaced with media supplemented with the desired concentration of the test compounds (10, 20, 50 and 100 μg/ml), being first dissolved at 10 mg/ml in DMSO and subsequently diluted in culture media. The vehicle control was culture medium supplemented with DMSO 0.5% (Macron Fine Chemicals), representing the highest final concentration of DMSO used to dissolve the natural compound. Following 24 hours of incubation, […] and incubated for 2 hours.

[2] = tested on: Normal Human Epidermal Keratinocytes (NHEKs); experiment: as above; assay type: cell-based; conditions: 24 h exposure, 10, 20, 50 and 100 μg/ml, vs control and DMSO vehicle control
Protocol: as §2, §3

[3] = tested on: Human Umbilical Vein Endothelial Cells (HUVECs); experiment: as above; assay type: cell-based; conditions: 24 h exposure, 10, 20, 50 and 100 μg/ml, vs control and DMSO vehicle control
Protocol: as §2, §3

Structure (SMILES)	capillary tube (tubule) formation, phase contrast microscopy (HUVECs)	number of junctions relative to control groups (HUVECs; 8 h)	NHDF gap closure (NHDFs; NHDFs, 10 μg/ml, all time points up to 20 h)	NHDF wound closure at higher concentration (NHDFs; NHDFs, higher concentration (20 μg/ml), early time points)	time of wound closure of fibroblast compared to the control (growth media) (NHDFs)	NHEK gap closure / level of wound closure vs control (NHEKs; NHEKs)	time of wound closure of keratinocyte compared to the control (growth media) (NHEKs)	toxicity (cell viability, MTS assay) [1]	toxicity (cell viability, MTS assay) [2]	toxicity (cell viability, MTS assay) [3]	NHDF gap closure / migration into the scratched gap vs control (NHDFs; NHDFs, compounds 10 and 20 μg/ml, extract 50 μg/ml, over 20 h)	percentage of gap closed (simulated wound closure) (NHEKs; NHEKs, 10 μg/ml, 6 h)	NHEK migration rate at higher concentration (NHEKs; NHEKs, higher concentration (20 μg/ml) vs 10 μg/ml)
C[C@H]1O[C@@H](Oc2c(-c3cc(O)c(O)c(O)c3)oc3cc(O)cc(O)c3c2=O)[C@@H](O)[C@@H](O)[C@@H]1O [myricetin-3-o-ß-rhamnoside]	formation of tubules assembled by the elongation and joining of HUVECs	approximately 3 fold	accelerated gap closure at all time points	negative effect on wound closure during early time points	reduced time of wound closure	Neither myricetin-3-o-ß-rhamnoside nor total P. persica extract led to a significantly higher NHEK gap closure than the control	reduced time of wound closure	No toxicity was observed	No toxicity was observed	No toxicity was observed	–	–	–
O=C(/C=C/c1ccc(O)c(O)c1)O[C@@H]1C[C@](O)(C(=O)O)C[C@@H](O)[C@H]1O [3-O-caffeoylquinic acid]	formation of tubules assembled by the elongation and joining of HUVECs	–	–	–	reduced time of wound closure	highest level of wound closure	reduced time of wound closure	–	–	–	delayed effect on NHDF gap closure at 20 h post-seeding	approximately 40%	did not lead to a faster migration rate
